# Test results taken from ChEMBL document CHEMBL5543097, “Synthesis and structure-activity relationships of novel 14-membered 2-fluoro ketolides with structural modification at the C11 position” (Eur J Med Chem, 2024).
# Key:
# Streptococcus pneumoniae [1] = assay: Potency index, ratio of telithromycin MIC to test compound MIC for antibacterial activity against Streptococcus pneumoniae SPN19-13 assessed as inhibition of visible bacterial growth incubated for 18 hrs by broth microdilution method; type: functional
# Streptococcus pneumoniae [2] = assay: Potency index, ratio of telithromycin MIC to test compound MIC for antibacterial activity against Streptococcus pneumoniae SPN19-8 assessed as inhibition of visible bacterial growth incubated for 18 hrs by broth microdilution method; type: functional
# Streptococcus pyogenes = assay: Antibacterial activity against erythromycin-resistant Streptococcus pyogenes ATCC 19615 assessed as inhibition of visible bacterial growth incubated for 18 hrs by broth microdilution method; type: functional
# Streptococcus agalactiae [3] = assay: Antibacterial activity against erythromycin-resistant Streptococcus agalactiae 19-9 assessed as inhibition of visible bacterial growth incubated for 18 hrs by broth microdilution method; type: functional
# Streptococcus agalactiae [4] = assay: Antibacterial activity against erythromycin-resistant Streptococcus agalactiae 19-8 assessed as inhibition of visible bacterial growth incubated for 18 hrs by broth microdilution method; type: functional
# Streptococcus pneumoniae [5] = assay: Antibacterial activity against erythromycin-resistant Streptococcus pneumoniae SPN19-14 assessed as inhibition of visible bacterial growth incubated for 18 hrs by broth microdilution method; type: functional
# Streptococcus pneumoniae [6] = assay: Antibacterial activity against erythromycin-resistant Streptococcus pneumoniae SPN19-13 assessed as inhibition of visible bacterial growth incubated for 18 hrs by broth microdilution method; type: functional
# Streptococcus pneumoniae [7] = assay: Antibacterial activity against erythromycin-resistant Streptococcus pneumoniae SPN19-8 assessed as inhibition of visible bacterial growth incubated for 18 hrs by broth microdilution method; type: functional
# [8] = system: Staphylococcus epidermidis; assay: Antibacterial activity against erythromycin-resistant Staphylococcus epidermidis 19-11 assessed as inhibition of visible bacterial growth incubated for 18 hrs by broth microdilution method; type: functional
# [9] = system: Staphylococcus epidermidis; assay: Antibacterial activity against erythromycin-resistant Staphylococcus epidermidis 19-9 assessed as inhibition of visible bacterial growth incubated for 18 hrs by broth microdilution method; type: functional
# [10] = system: Staphylococcus epidermidis; assay: Antibacterial activity against erythromycin-resistant Staphylococcus epidermidis 19-8 assessed as inhibition of visible bacterial growth incubated for 18 hrs by broth microdilution method; type: functional
# [11] = system: Staphylococcus epidermidis; assay: Antibacterial activity against erythromycin-resistant Staphylococcus epidermidis 19-6 assessed as inhibition of visible bacterial growth incubated for 18 hrs by broth microdilution method; type: functional
# [12] = system: Staphylococcus epidermidis; assay: Antibacterial activity against erythromycin-resistant Staphylococcus epidermidis 19-4 assessed as inhibition of visible bacterial growth incubated for 18 hrs by broth microdilution method; type: functional
# [13] = system: Staphylococcus epidermidis; assay: Antibacterial activity against erythromycin-resistant Staphylococcus epidermidis 19-5 assessed as inhibition of visible bacterial growth incubated for 18 hrs by broth microdilution method; type: functional
# Streptococcus pneumoniae [14] = assay: Potency index, ratio of telithromycin MIC to test compound MIC for antibacterial activity against Streptococcus pneumoniae SPN19-14 assessed as inhibition of visible bacterial growth incubated for 18 hrs by broth microdilution method; type: functional
# Moraxella catarrhalis [15] = assay: Antibacterial activity against Moraxella catarrhalis BCA 19-5 assessed as inhibition of bacterial growth incubated for 24 hrs by CLSI based broth microdilution method; type: functional
# Moraxella catarrhalis [16] = assay: Antibacterial activity against Moraxella catarrhalis BCA 19-6 assessed as inhibition of bacterial growth incubated for 24 hrs by CLSI based broth microdilution method; type: functional
# Haemophilus influenzae [17] = assay: Antibacterial activity against Haemophilus influenzae HIN 19-15 assessed as inhibition of bacterial growth incubated for 20 to 24 hrs by CLSI based broth microdilution method; type: functional; settings: time 20-24 hrs
# Haemophilus influenzae [18] = assay: Antibacterial activity against Haemophilus influenzae HIN 20-18 assessed as inhibition of bacterial growth incubated for 20 to 24 hrs by CLSI based broth microdilution method; type: functional; settings: time 20-24 hrs
# [19] = Cytotoxicity against mouse AML12 cells assessed as reduction in cell viability incubated for 48 hrs by MTT assay; type: toxicity, cell-based
# Haemophilus influenzae [20] = assay: Antibacterial activity against Haemophilus influenzae HIN 19-18 assessed as inhibition of bacterial growth incubated for 20 to 24 hrs by CLSI based broth microdilution method; type: functional; settings: HIN 19-18, time 20-24 hrs
# [21] = system: Staphylococcus epidermidis; assay: Potency index, ratio of telithromycin MIC to test compound MIC for antibacterial activity against erythromycin-resistant Staphylococcus epidermidis 19-11 assessed as inhibition of visible bacterial growth incubated for 18 hrs by broth microdilution method; type: functional
# [22] = system: Staphylococcus epidermidis; assay: Potency index, ratio of telithromycin MIC to test compound MIC for antibacterial activity against erythromycin-resistant Staphylococcus epidermidis 19-9 assessed as inhibition of visible bacterial growth incubated for 18 hrs by broth microdilution method; type: functional
# [23] = system: Staphylococcus epidermidis; assay: Potency index, ratio of telithromycin MIC to test compound MIC for antibacterial activity against erythromycin-resistant Staphylococcus epidermidis 19-8 assessed as inhibition of visible bacterial growth incubated for 18 hrs by broth microdilution method; type: functional
# [24] = system: Staphylococcus epidermidis; assay: Potency index, ratio of telithromycin MIC to test compound MIC for antibacterial activity against erythromycin-resistant Staphylococcus epidermidis 19-6 assessed as inhibition of visible bacterial growth incubated for 18 hrs by broth microdilution method; type: functional
# [25] = system: Staphylococcus epidermidis; assay: Potency index, ratio of telithromycin MIC to test compound MIC for antibacterial activity against erythromycin-resistant Staphylococcus epidermidis 19-5 assessed as inhibition of visible bacterial growth incubated for 18 hrs by broth microdilution method; type: functional
# [26] = system: Staphylococcus epidermidis; assay: Potency index, ratio of telithromycin MIC to test compound MIC for antibacterial activity against erythromycin-resistant Staphylococcus epidermidis 19-4 assessed as inhibition of visible bacterial growth incubated for 18 hrs by broth microdilution method; type: functional
# Moraxella catarrhalis [27] = assay: Antibacterial activity against Moraxella catarrhalis BCA 19-31 assessed as inhibition of bacterial growth incubated for 24 hrs by CLSI based broth microdilution method; type: functional; settings: BCA 19-31, 24 h
# [28] = Moraxella catarrhalis, BCA 19-5, 24 h, read-out: MIC
# [29] = Moraxella catarrhalis, BCA 19-6, 24 h, read-out: MIC
Structure (SMILES),Ratio (Streptococcus pneumoniae [1]),MIC (Streptococcus pyogenes),MIC (Streptococcus agalactiae [3]),MIC (Streptococcus agalactiae [4]),MIC (Streptococcus pneumoniae [5]),MIC (Streptococcus pneumoniae [6]),MIC (Streptococcus pneumoniae [7]),MIC [8],MIC [9],MIC [10],MIC [11],MIC [12],MIC [13],MIC (Moraxella catarrhalis [15]; [28]),MIC (Moraxella catarrhalis [16]; [29]),MIC (Haemophilus influenzae [17]),MIC (Haemophilus influenzae [18]),CC50 at 48 h [19],MIC (Haemophilus influenzae [20]),MIC (Moraxella catarrhalis [27]),also measured
CC[C@H]1OC(=O)[C@@](C)(F)C(=O)[C@H](C)[C@@H](O[C@@H]2O[C@H](C)C[C@H](N(C)C)[C@H]2O)[C@](C)(OC)C[C@@H](C)C(=O)[C@H](C)[C@H]2N(CCCOC(=O)Nc3ccc4c(c3)OCO4)C(=O)O[C@]12C,<4,< 0.03 µg/mL,0.125 µg/mL,< 0.03 µg/mL,< 0.03 µg/mL,< 0.03 µg/mL,0.03 µg/mL,< 0.03 µg/mL,0.125 µg/mL,< 0.03 µg/mL,0.06 µg/mL,0.06 µg/mL,< 0.03 µg/mL,< 0.03 µg/mL,< 0.03 µg/mL,4 µg/mL,8 µg/mL,85.6 µM,–,–,Ratio (Streptococcus pneumoniae [2]): <4; Ratio (Streptococcus pneumoniae [14]): <4; MIC (Moraxella catarrhalis [16]; 24 h): 0.06 µg/mL
CC[C@H]1OC(=O)[C@@](C)(F)C(=O)[C@H](C)[C@@H](O[C@@H]2O[C@H](C)C[C@H](N(C)C)[C@H]2O)[C@](C)(OC)C[C@@H](C)C(=O)[C@H](C)[C@H]2N(CCCOC(=O)Nc3ccc(C)cc3)C(=O)O[C@]12C,<4,< 0.03 µg/mL,0.25 µg/mL,< 0.03 µg/mL,< 0.03 µg/mL,< 0.03 µg/mL,0.06 µg/mL,< 0.03 µg/mL,0.125 µg/mL,< 0.03 µg/mL,< 0.03 µg/mL,< 0.03 µg/mL,< 0.03 µg/mL,0.03 µg/mL,–,8 µg/mL,–,83.2 µM,8 µg/mL,–,Ratio (Streptococcus pneumoniae [2]): <4; Ratio (Streptococcus pneumoniae [14]): <4; MIC (Moraxella catarrhalis [15]; 24 h): <0.03 µg/mL
CC[C@H]1OC(=O)[C@@](C)(F)C(=O)[C@H](C)[C@@H](O[C@@H]2O[C@H](C)C[C@H](N(C)C)[C@H]2O)[C@](C)(OC)C[C@@H](C)C(=O)[C@H](C)[C@H]2N(CCCOC(=O)Nc3cccc(SC)c3)C(=O)O[C@]12C,–,< 0.03 µg/mL,0.125 µg/mL,< 0.03 µg/mL,< 0.03 µg/mL,< 0.03 µg/mL,< 0.03 µg/mL,0.03 µg/mL,< 0.03 µg/mL,< 0.03 µg/mL,0.03 µg/mL,< 0.03 µg/mL,0.03 µg/mL,< 0.03 µg/mL,< 0.03 µg/mL,2 µg/mL,–,34.4 µM,1 µg/mL,< 0.03 µg/mL,Ratio [21]: 4; Ratio [22]: 4; Ratio [23]: 4; Ratio [24]: 4; Ratio [25]: 4; Ratio [26]: 4
CC[C@H]1OC(=O)[C@H](C)[C@@H](O[C@H]2C[C@@](C)(OC)[C@@H](O)[C@H](C)O2)[C@H](C)[C@@H](O[C@@H]2O[C@H](C)C[C@H](N(C)C)[C@H]2O)[C@](C)(OC)C[C@@H](C)C(=O)[C@H](C)[C@@H](O)[C@]1(C)O [CLARITHROMYCIN],–,< 0.03 µg/mL,64 µg/mL,0.06 µg/mL,0.5 µg/mL,64 µg/mL,> 64 µg/mL,16 µg/mL,16 µg/mL,> 64 µg/mL,64 µg/mL,> 64 µg/mL,0.25 µg/mL,> 64 µg/mL,32 µg/mL,4 µg/mL,> 16 µg/mL,> 100 µM,8 µg/mL,0.125 µg/mL,–
CC[C@H]1OC(=O)[C@H](C)[C@@H](O[C@H]2C[C@@](C)(OC)[C@@H](O)[C@H](C)O2)[C@H](C)[C@@H](O[C@@H]2O[C@H](C)C[C@H](N(C)C)[C@H]2O)[C@](C)(O)C[C@@H](C)CN(C)[C@H](C)[C@@H](O)[C@]1(C)O [AZITHROMYCIN],–,0.25 µg/mL,0.125 µg/mL,0.5 µg/mL,4 µg/mL,> 64 µg/mL,0.25 µg/mL,0.25 µg/mL,> 64 µg/mL,0.25 µg/mL,0.5 µg/mL,> 64 µg/mL,0.5 µg/mL,> 64 µg/mL,> 64 µg/mL,4 µg/mL,> 16 µg/mL,> 100 µM,4 µg/mL,0.125 µg/mL,–
CC[C@H]1OC(=O)[C@H](C)[C@@H](O[C@H]2C[C@@](C)(OC)[C@@H](O)[C@H](C)O2)[C@H](C)[C@@H](O[C@@H]2O[C@H](C)C[C@H](N(C)C)[C@H]2O)[C@](C)(O)C[C@@H](C)C(=O)[C@H](C)[C@@H](O)[C@]1(C)O [ERYTHROMYCIN],–,< 0.03 µg/mL,16 µg/mL,0.125 µg/mL,0.5 µg/mL,> 64 µg/mL,> 64 µg/mL,64 µg/mL,> 64 µg/mL,> 64 µg/mL,32 µg/mL,> 64 µg/mL,0.25 µg/mL,> 64 µg/mL,64 µg/mL,8 µg/mL,> 16 µg/mL,> 100 µM,8 µg/mL,0.5 µg/mL,–
CC[C@H]1OC(=O)[C@@](C)(F)C(=O)[C@H](C)[C@@H](O[C@@H]2O[C@H](C)C[C@H](N(C)C)[C@H]2O)[C@](C)(OC)C[C@@H](C)C(=O)[C@H](C)[C@H]2N(CCCOC(=O)Nc3cccs3)C(=O)O[C@]12C,<4,< 0.03 µg/mL,1 µg/mL,–,0.25 µg/mL,0.25 µg/mL,0.125 µg/mL,< 0.03 µg/mL,0.5 µg/mL,0.06 µg/mL,0.06 µg/mL,0.25 µg/mL,< 0.03 µg/mL,0.25 µg/mL,0.25 µg/mL,4 µg/mL,8 µg/mL,> 100 µM,4 µg/mL,0.06 µg/mL,Ratio (Streptococcus pneumoniae [2]): <4; Ratio (Streptococcus pneumoniae [14]): <4
CC[C@H]1OC(=O)[C@@](C)(F)C(=O)[C@H](C)[C@@H](O[C@@H]2O[C@H](C)C[C@H](N(C)C)[C@H]2O)[C@](C)(OC)C[C@@H](C)C(=O)[C@H](C)[C@H]2N(CCCOC(=O)Nc3cccc(F)c3C)C(=O)O[C@]12C,–,< 0.03 µg/mL,0.5 µg/mL,–,0.125 µg/mL,0.125 µg/mL,0.25 µg/mL,< 0.03 µg/mL,0.5 µg/mL,0.06 µg/mL,0.125 µg/mL,0.06 µg/mL,< 0.03 µg/mL,0.125 µg/mL,0.45 µg/mL,8 µg/mL,16 µg/mL,36.7 µM,4 µg/mL,0.06 µg/mL,–
CC[C@H]1OC(=O)[C@@](C)(F)C(=O)[C@H](C)[C@@H](O[C@@H]2O[C@H](C)C[C@H](N(C)C)[C@H]2O)[C@](C)(OC)C[C@@H](C)C(=O)[C@H](C)[C@H]2N(CCCOC(=O)Nc3cccc(C)c3C)C(=O)O[C@]12C,–,< 0.03 µg/mL,1 µg/mL,–,0.06 µg/mL,0.06 µg/mL,0.125 µg/mL,0.03 µg/mL,0.125 µg/mL,< 0.03 µg/mL,0.03 µg/mL,0.03 µg/mL,< 0.03 µg/mL,0.125 µg/mL,0.125 µg/mL,8 µg/mL,16 µg/mL,26 µM,8 µg/mL,0.125 µg/mL,–
